# Measurements: publication PMC3006138, “Fexinidazole – A New Oral Nitroimidazole Drug Candidate Entering Clinical Development for the Treatment of Sleeping Sickness” (PLoS Neglected Tropical Diseases, 2010)
# How the values were obtained:
# [1] = test system: bone marrow polychromatic erythrocytes; assay: In vivo bone marrow micronucleus test; set-up: species or system mouse
# Description: Groups of six young adult male Crl:CD-1 (ICR) mice were treated with fexinidazole at two oral doses of 0, 500, 1000, or 2000 mg/kg given 24 h apart, and bone marrows were harvested 24 h after the second dose. Slides of bone marrow cells were prepared, Giemsa stained, and 2000 polychromatic erythrocytes per animal were scored for micronuclei.
# human MDR1 = assay: in vitro; conditions: dog, MDCK-MDR1, pH 7.4
# Description: (§1) Caco-2 [36] or MDR1-MDCK (Madin Darby canine kidney cells transfected with the human multidrug resistance MDR1 gene) cell monolayers were grown to confluence on collagen-coated, microporous, polycarbonate membranes in 12-well microtitre plates. The buffer for the donor chamber was Hanks balanced salt solution with 10 mM HEPES and 15 mM glucose at pH 7.4. The buffer in the receiver chamber contained the same with the addition of 1% bovine serum albumin (BSA). The test article was added at 5 µM in the assay buffer. […] After 2 h, duplicate aliquots were taken from the donor and receiver chambers and assayed via LC/MS. The apparent permeability and recovery were calculated using standard methods.
# (§2) The objective of this study was to determine the bi-directional MDR1-MDCK permeability and efflux limited absor ption potential of thr ee test compounds. […]
# (§3) 4. Th e buff er in th e r ecei ver cha m ber a l so con t a in ed 1% Bovi n e Ser um Al bumin ( BSA) . Th e test compound dosing concentrations were 5 µM in th e a ssay bu f fer . […] After two hours, a l iquot s wer e t a ken fr om th e r ecei ver an d don or cha m ber s. E a ch det erm ina ti on wa s per for m ed in dupl i cat e. Th e Lucifer Yellow flux was also measur ed for each mon olayer after bein g subjected to th e test compoun ds to en sur e n o damage was in flicted to th e cell mon olayer s durin g th e flux per iod. All samples wer e assayed by LC/MS/MS usin g electrospray ionization. Analytical conditions are outlined in Attachment I. The apparent permeability, Papp, and per cen t r ecover y wer e calculated as follows: […]
# (§4) dCr /dt is th e slope of th e cumulative con cen tration in th e r eceiver compartment ver sus time in µM s -1. […]
# [2] = test system: MDR1 (human, transfected); assay: in vitro; conditions: dog, MDCK-MDR1, pH 7.4
# Description: as §1, §2, §3, §4
# in vitro = conditions: dog
# Description: as §1, §2, §3, §4
# [3] = test system: MDR1-MDCK cell monolayers; assay: in vitro; conditions: MDCK-MDR1
# Description: as §1, §2, §3, §4
# [4] = 28-day repeated-dose oral toxicity; format: in vivo
# Description: In the rat repeated-dose toxicokinetic study, fexinidazole was administered orally by gavage once a day for 28 consecutive days to ten or fifteen Crl:CD (SD)IGS BR rats/sex/group at doses of 50, 200, or 800 mg/kg/day. A control group received the vehicle alone (5% Tween 80/0.5% methocel). Ten animals/sex/group were sacrificed at the end of the treatment period on day 29 or 30 of study. The remaining 5 animals/sex/group in the control and high-dose groups were sacrificed on day 43 at the end of a 2-weeks observation period. Systemic exposure to fexinidazole and its sulfoxide and sulfone metabolites was evaluated in three additional animals/sex/group. Samples were taken at predose, and 30 min, 1, 2, 4, 8 and 24 h after dosing on days 1, 14, and 28, and in addition at 48 and 72 h after treatment on day 28.
# Study Report for NervianoMS Study 0504-2007
# Fexinidaxole, a 5-nitroimidazole derivative biologically active against Trypanosoma parasites (T.b. rhodesiense and T.b. brucei ), was administered orally by gavage once daily for 28 consecutive days to ten or fifteen Crl:CD (SD)IGS BR rats/sex/group at doses of 50, 200 and 800 mg/kg/day in a volume of 10 mL/kg.
# A control group received the vehicle alone (5% Tween 80 in 0.5% Methyl cellulose 400 cP […]
# Ten animals/sex/group were sacrificed at the end of the treatment period on Day 29 or 30 of study. The remaining 5 animals/sex in the control and high-dose groups were sacrificed on Day 43 at the end of a two-week observation period.
# Mortality, behavior and general condition were observed daily. Body weight was recorded pretest, and on Days 1, 8, 14, 21, 28, 35 and 42. Food consumption was recorded from Days […]
# pre-test, and on Days 28 and 42. Hematological and clinical chemistry examinations and urine analysis were performed on Days 29 and 43.
# Post-mortem examinations performed at the end of the treatment period (Day 29 or 30) or the recovery period (Day 43) included necropsy, organ weights and histological […]
# Systemic exposure information was obtained from three additional animals/sex/group on Days 1 and 14 at different time-points up to 24 hours after treatment and on Day 28 at different time-points up to 72 hours after treatment.
# No meaningful clinical signs or changes in ophthalmoscopic examinations were seen. […]
# animals at 200 and 800 mg/kg for the entire treatment period. When treatment was […]
# weight gain in comparison with controls.
# Nerviano Medical Sciences […]
# Humidity 55% +/- 15; monitored
# Air Approximately twenty air changes per hour; monitored
# Lighting Approximate 12-hour light, 12-hour dark cycle. The lighting cycle could be interrupted for performance of protocol-defined activities.
# Water Municipal main, water available ad libitum
# Diet 4RF21 GLP pellets ad libitum, supplied by Mucedola
# Actual conditions were continuously monitored and recorded, and records were retained.
# Release of each lot of feed by the manufacturers was based on analysis of composite samples of each lot, which met specifications set by the manufacturers. Water was periodically analyzed for chemical and microbial impurities. No contaminants were identified in the food or water which were expected to interfere with the results or conclusions of this study.
# All the above environmental conditions, as well as all the procedures adopted throughout the study for housing and handling the animals, were in strict compliance with EEC and Italian Guidelines for Laboratory Animal Welfare.
# 6.2.2. Allocation/Randomization
# The animals were selected and distributed into experimental groups using random number tables (Fisher and Yates). The randomization was performed during the pretest period on February 1, 2008 for all animals.
# One male animal (No. 2846) assigned to satellite study group for toxicokinetic purposes, found dead on Day 2 of study, was replaced with another one taken from the same arrival batch of animals, in order to maintain the number of three animals/sex/group for subsequent […]
# blood samplings. […]
smiles,measurement,setting,value
"CSc1ccc(OCc2ncc([N+](=O)[O-])n2C)cc1 [Fexinidazole, 1-methyl-2-((p-(methylthio)phenoxy)methyl)-5-nitroimidazole]",Micronucleated PCE/1000,[1]; 500 mg/kg po ×2,1.4
same,PCE/NCE,[1]; 500 mg/kg po ×2,0.82
same,Micronucleated PCE/1000,[1]; 1000 mg/kg po ×2,1.1
same,PCE/NCE,[1]; 1000 mg/kg po ×2,0.75
same,Micronucleated PCE/1000,[1]; 2000 mg/kg po ×2,1.8
same,PCE/NCE,[1]; 2000 mg/kg po ×2,0.89
same,in vivo micronucleus test result,[1]; oral doses up to 2 g/kg,confirmed the lack of clastogenicity
same,"Papp B→A at 2 h, 5 µM",human MDR1,55.1 ×10⁻⁶ cm/s
same,"efflux ratio at 2 h, 5 µM",[2],0.9
same,"Papp A→B at 2 h, 5 µM","in vitro; MDCK-MDR1, pH 7.4",60.6 ×10⁻⁶ cm/s
same,"recovery at 2 h, 5 µM","in vitro; MDCK-MDR1, pH 7.4, Percent Recovery A→B",71%
same,"recovery at 2 h, 5 µM","in vitro; MDCK-MDR1, pH 7.4, Percent Recovery B→A",77%
same,Papp B-A / Papp A-B Ratio,[3],no significant efflux
same,mortality,[4]; all groups,No compound-related mortality occurred
same,NOAEL at 28 days,"[4]; both sexes, Crl:CD (SD)IGS BR, rat, in vivo, po",200 mg/kg/day
same,decrease in hemoglobin,"[4]; rat, in vivo",8%
same,decrease in neutrophils,"[4]; rat, in vivo",about 46%
same,decrease in triglycerides,"[4]; rat, in vivo",50%
same,increase in globulins,"[4]; rat, in vivo",+13%
same,increase in total cholesterol,"[4]; rat, in vivo",+51%
same,liver enzymes,"[4]; rat, in vivo",no increase in liver enzymes including AST and ALT
same,liver histopathology,"[4]; rat, in vivo",Minimal to slight hypertrophy of the centrilobular hepatocytes
